From patent US6368788B1 (priority 1987, dated 2002)

Key:
[1] = system: Influenza A; details: Combined Therapy: Conventional + L-Glu-L-Trp
Description: A clinical trial was conducted in a group of 588 patients between the ages of 17-21 years all having a confirmed infection with Influenza A, (i.e., confirmation by either hemagglutination-inhibition or the presence of specific viral antigens).

[2] = system: influenza; set-up: species or system human; details: in vivo
[3] = Complications of pregnancy: toxemia (Protocol B); set-up: species or system human; details: in vivo
Description: L-Glu-L-Trp was administered im at 100 μg daily, or 1 μg/kg intranasally, for 5-10 days.

[4] = Allergies (hayfever protocol); set-up: species or system human; details: in vivo
Description: Twenty nine patients (29) with various diagnosed allergies were treated on a daily basis for 5-7 days with L-Glu-L-Trp at a dose of […] delivered im or by the intranasal route. Seventeen patients (17) in the control group received conventional therapy.

[5] = system: Plasmodium falciparum; experiment: Relapsing tropical malaria; type: in vivo, human; set-up: IgG / IgA / IgM: unit not given here
[6] = system: Dengue virus; experiment: Hemorrhagic Dengue Fever Protocol A; type: in vivo, human
Description: L-Glu-L-Trp was administered to 21 patients with hemorrhagic Dengue Fever, and 28 patients receiving conventional therapy served as controls. L-Glu-L-Trp was administered im single daily doses of 100 μg on each of 5 consecutive days as an adjunct to ongoing conventional therapy. […] The investigators also observed that L-Glu-L-Trp treated patients experienced a reduction in muscle and bone pain. Immunological indices in peripheral blood were also normalized.
Forty nine patients (20-30 years of age; Kinh nationality) with diagnosed Dengue Fever were entered into the trial. The patients were referred to the 175th Military Hospital in Ho Chi Minh City at the time of an epidemic of Dengue fever in the South […] Republic of Vietnam. Diagnosis was based on the criteria recommended by the World Health Organization (1986) using medical histories, and clinical and laboratory data. Serological analyses were conducted at the Arbovirus Infectious Diseases Laboratory of the Pasteur Institute in Ho Chi Minh City. […] Dyspeptic toxicosis, i.e., nausea and vomiting were rarely encountered (15% and 11.7%, respectively). Joint and muscle pains were pronounced, most commonly involving the spinal joints in the lumbar region (96.6%), joints of the pelvic girdle (82.2%), the ulnar joints (53.4%), as well as, the muscles of the lumbar (69%) and abdominal regions (69%). Exanthema (40.7%) and lymphadenopathy (46.7%) were evident in certain patients. […] Leukocytes during peak episodes of disease were recorded to be 4.60±0.17×10^9/L, and the absolute number of lymphocytes varied widely from 0.95 to 4.29×10^9/L.
Group 1 received conventional maintenance therapy consisting of detoxifying preparations and methods, e.g., fluids, fever control agents and the like. Group 2 received combination therapy, i.e., maintenance therapy and L-Glu-L-Trp, but only during periods of acute disease activity. L-Glu-L-Trp was administered at a dosage of 500 μg. The efficacy of the respective treatment protocols was evaluated by recording the most frequently used clinical indicia of Dengue disease activity: namely, the clinical indicia recorded in TABLE 45.

[7] = system: C. albicans; experiment: Disseminated candidiasis: mean survival and kidney infection (Study 41B); type: in vivo, mice; details: for Kidney Infection: greater than 8 logs of C. albicans, day 5
Description: Study 41B: Using a standardized inoculum (i.e., 10^8 cells/mL), the LD95 value (=14.9×10^6 cells/animal) was determined by injecting different numbers of C. albicans cells iv into mice and recording deaths at 20 days. L-Glu-L-Trp was administered ip at doses of 1, 10, 100 and 300 μg/kg in either a prophylactic or therapeutic drug regimen (abbreviated PDR or TDR, respectively). Prophylaxis consisted of 3 ip injections on 3 consecutive days, with the last injection being 3 hours before injecting the C. albicans cells iv. Therapy consisted of 10 consecutive daily ip injections starting 24 hours after the iv injection of the C. albicans cells. Mean survival was determined at 10 days, and as an independent monitor for infection, kidneys were removed from nine parallel groups (12 animals each) of infected animals at 5 days and after microbiological isolation the numbers of C. albicans cultures counted.

[8] = malaria, after L-Glu-L-Trp Therapy (n = 33)
[9] = Combination L-Glu-L-Trp Therapy (n = 21)

L-Glu-L-Trp
Increase in T-helper Cells Percentage [1]: 17% | Length of Required Therapy [1]: 7.1 ± 0.3 days | Pharyngitis manifestations [1]: 3.6 ± 0.3 days | Secondary (Pneumonia) Complications [1]: 4.0% | T-helper/T-suppressor Ratio [1]: 2.7 | Tracheitis manifestations [1]: 3.6 ± 0.3 days | Clinical outcome [2]: significantly decreased the incidence of sickness in the vaccinated subjects for a period of 12 months | Clinical outcome [3]: normalized blood pressure | Clinical outcome [4]: disappearance of allergic reactions | Clinical outcome ([5]; in vivo): decreased incidence of disease relapses | FDP and ATIII levels ([5]; in vivo): the levels of FDP decreased and ATIII increased | PBL and T- and B-lymphocyte counts ([5]; in vivo): increased PBL and T- and B-lymphocyte counts to normal or supra-normal values | ATIII (%) [5, 8]: 98 ± 1.38% | B-Lymphocytes [5, 8]: 0.53 ± 0.02 ×10^9/L | B-Lymphocytes % Normal Value [5, 8]: (115%) | Clotting time (whole blood) [5, 8]: 141 ± 2.4^ | FDP [5, 8]: 23 ± 1.8 µg/mL | Fibrinogen Concentration [5, 8]: 3.4 ± 0.1 g/L | Hagemann factor dependent fibrinolysis [5, 8]: 25 ± 2.58 | IgA [5, 8]: 138 ± 6.0 | IgA % Normal Value [5, 8]: (140%) | IgG [5, 8]: 187 ± 1.9 | IgG % Normal Value [5, 8]: (140%) | IgM [5, 8]: 193 ± 9.0 | IgM % Normal Value [5, 8]: (152%) | Kaolin clotting time [5, 8]: 58 ± 0.3 | Leukocytes [5, 8]: 9.0 ± 0.14 ×10^9/L | Leukocytes % Normal Value [5, 8]: (155%) | Lymphocytes [5, 8]: 2.57 ± 0.09 ×10^9/L | Lymphocytes % Normal Value [5, 8]: (148%) | PTT [5, 8]: 23 ± 0.2 | T-Lymphocytes [5, 8]: 0.94 ± 0.06 ×10^9/L | T-Lymphocytes % Normal Value [5, 8]: (106%) | Thrombotest [5, 8]: 33 ± 0.5 | Total Fibrinogen [5, 8]: 200 ± 2.7^ | Duration of Symptom: Eye muscle pain [6, 9]: 6.6 ± 0.8 h | Duration of Symptom: Fever, At day 2-4 of illness [6, 9]: 4.7 ± 0.2 h | Duration of Symptom: Fever, At day 2-6 of illness [6, 9]: 5.2 ± 0.3 h | Duration of Symptom: Headache [6, 9]: 8.1 ± 0.9 h | Duration of Symptom: Hepatomegally [6, 9]: 11.3 ± 0.8 h | Duration of Symptom: Insomnia [6, 9]: 7.1 ± 0.7 h | Duration of Symptom: Joint pain [6, 9]: 7.4 ± 0.7 h | Duration of Symptom: Loss of appetite [6, 9]: 7.5 ± 0.8 h | Duration of Symptom: Lumbar pain [6, 9]: 8.7 ± 0.7 h | Duration of Symptom: Skeletal muscle pain [6, 9]: 7.7 ± 1.1 h | Duration of Symptom: Splenomegally [6, 9]: 9.6 ± 0.7 h | Duration of Symptom: Waist/Pelvic girdle pain [6, 9]: 8.1 ± 0.8 h | Duration of Symptom: Weakness [6, 9]: 9.3 ± 0.8 h | Clinical outcome ([6]; in vivo): decrease in fever, reduction of toxic symptoms | Survival % 6d ([7]; PDR, 1 μg/kg ip): 50% | Survival % 8d ([7]; PDR, 1 μg/kg ip): 20% | Survival Mean ([7]; PDR, 1 μg/kg ip): 6.2 ± 2.0 days | Kidney Infection ([7]; PDR, 1 μg/kg ip): 58% | Survival % 6d ([7]; PDR, 10 μg/kg ip): 60% | Survival % 8d ([7]; PDR, 10 μg/kg ip): 20% | Survival Mean ([7]; PDR, 10 μg/kg ip): 6.4 ± 2.2 days | Kidney Infection ([7]; PDR, 10 μg/kg ip): 58% | Survival % 6d ([7]; PDR, 100 μg/kg ip): 80% | Survival % 8d ([7]; PDR, 100 μg/kg ip): 40% | Survival Mean ([7]; PDR, 100 μg/kg ip): 7.9 ± 1.9 days | Kidney Infection ([7]; PDR, 100 μg/kg ip): 75% | Survival % 6d ([7]; PDR, 300 μg/kg ip): 80% | Survival % 8d ([7]; PDR, 300 μg/kg ip): 50% | Survival Mean ([7]; PDR, 300 μg/kg ip): 7.8 ± 2.1 days | Kidney Infection ([7]; PDR, 300 μg/kg ip): 58% | Survival % 6d ([7]; TDR, 1 μg/kg ip): 60% | Survival % 8d ([7]; TDR, 1 μg/kg ip): 50% | Survival Mean ([7]; TDR, 1 μg/kg ip): 7.3 ± 2.7 days | Kidney Infection ([7]; TDR, 1 μg/kg ip): 67% | Survival % 6d ([7]; TDR, 10 μg/kg ip): 50% | Survival % 8d ([7]; TDR, 10 μg/kg ip): 30% | Survival Mean ([7]; TDR, 10 μg/kg ip): 6.2 ± 2.2 days | Kidney Infection ([7]; TDR, 10 μg/kg ip): 50% | Survival % 6d ([7]; TDR, 100 μg/kg ip): 80% | Survival % 8d ([7]; TDR, 100 μg/kg ip): 50% | Survival Mean ([7]; TDR, 100 μg/kg ip): 7.8 ± 1.9 days | Kidney Infection ([7]; TDR, 100 μg/kg ip): 75% | Survival % 6d ([7]; TDR, 300 μg/kg ip): 80% | Survival % 8d ([7]; TDR, 300 μg/kg ip): 40% | Survival Mean ([7]; TDR, 300 μg/kg ip): 7.8 ± 2.1 days | Kidney Infection ([7]; TDR, 300 μg/kg ip): 67% | Survival ([7]; prophylactic and therapeutic treatments): significantly increased the number of animals surviving at days 6 and 8
